The text below walks through data of patent publication US12178793B2, “Ophthalmic compositions containing a nitric oxide releasing prostamide” (NICOX SA, priority 2018, dated 2024).

The conditions of data set [1]: cited from earlier work.
A short description of data set [2]: Aqueous solubility of the active ingredient. The settings on record: water, read-out: minimum aqueous solubility. The data set is classed as physicochemical. As for the experimental part:
Hexanoic acid, 6-(nitrooxy)-, (1S,2E)-3-[(1R,2R,3S,5R)-2-[(2Z)-7-(ethylamino)-7-oxo-2-hepten-1-yl]-3,5-dihydroxycyclopentyl]-1-(2-phenylethyl)-2-propen-1-yl ester is a viscous oil having a minimum aqueous solubility of 0.02 mg/ml therefore aqueous pharmaceutical compositions of hexanoic acid, 6-(nitrooxy)-, (1S,2E)-3-[(1R,2R,3S,5R)-2-[(2Z)-7-(ethylamino)-7-oxo-2-hepten-1-yl]-3,5-dihydroxycyclopentyl]-1-(2-phenylethyl)-2-propen-1-yl ester must contain solubilizing agents that increase the water solubility of the compound and allow achieving therapeutically active concentrations of the compound.

The nature of data set [3]: Solubility in aqueous solutions at pH 6.0 containing a solubilizing agent. The data set is classed as physicochemical.
A short description of data set [4]: Pharmacokinetic evaluation after single ocular instillation, Study 2 (bimatoprost free acid in aqueous humor). Format: in vivo, Dutch Belted Rabbits. The settings on record: bimatoprost free acid in aqueous humor as marker; benzalkonium chloride up to 0.02% w/w. From the text:
Pharmacokinetic Evaluation in Dutch Belted Rabbits after Single Ocular Instillation
The aim of this study was to assess the aqueous humor content of bimatoprost free acid following topical ocular dosing with three different aqueous ophthalmic solutions containing hexanoic acid, 6-(nitrooxy)-, (1S,2E)-3-[(1R,2R,3S,5R)-2-[(2Z)-7-(ethylamino)-7-oxo-2-hepten-1-yl]-3,5-dihydroxycyclopentyl]-1-(2-phenylethyl)-2-propen-1-yl ester (0.042% w/w) in three different vehicles reported in Table 10.
Forty animals were included in the study. They were allocated into four groups of 10 animals/group and were administered with the above reported tested aqueous ophthalmic solutions
All animals included in the study were administered by ocular instillation of both eyes by means of a graduated pipette at a volume of […]. Two animals per formula were sacrificed at 0 h (pre-dose), 1 h, 2 h, 4 h and 8 h, and aqueous humor samples were obtained immediately from both eyes.

≈ marks a conversion by molar mass, not a printed value.

For `CCNC(=O)CCC/C=C\C[C@@H]1[C@@H](/C=C/[C@H](CCc2ccccc2)OC(=O)CCCCCO[N+](=O)[O-])[C@H](O)C[C@@H]1O` [NCX 470, Hexanoic acid, 6-(nitrooxy)-, (1S,2E)-3-[(1R,2R,3S,5R)-2-[(2Z)-7-(ethylamino)-7-oxo-2-hepten-1-yl]-3,5-dihydroxycyclopentyl]-1-(2-phenylethyl)-2-propen-1-yl ester], the “intra ocular pressure (IOP)-lowering” value in data set [1] (Impagnatiello et al., Invest Ophthalmol Vis Sci. 2015) was “effective”. Also, in data set [1] (vs equimolar doses of bimatoprost, vehicle 0.25% Tween 80, 0.02% BAK, 2% glycerine and 0.1% EDTA, Br J Pharmacol 2018), the “IOP-lowering efficacy versus bimatoprost” value is given as “greater IOP-lowering efficacy”. The solubility in data set [2] is 20 µg/mL (≈ 34.8 µM); in data set [3] (aqueous solution at pH 6.0 containing 0.5% (w/w) macrogol 15-hydroxystearate (Kolliphor HS15)), 0.070 % (w/w); in data set [3] (aqueous solution at pH 6.0 containing 0.5% (w/w) polysorbate 80 (Tween 80)), 0.074 % (w/w).

As to benzalkonium chloride, in data set [4], the “effect of the excipient on the ocular penetration of NCX 470” value is recorded as “did not exert any effect”.
